From PubChem BioAssay AID1963843 (Molecular Pharmacology Branch, DTP, NCI, 2024)

Test system: 616215-338-R-J1-PDC complex spheroid viability
Assay: Anticancer human tumor 616215-338-R-J1-PDC patient-derived colon adenocarcinoma cell line growth inhibition [POLQ]
Details: for IC50: curve of first compound; for viability, T/C: stronger effect = lower value
Method: Multicellular complex tumor spheroid response to Polymerase (POL) inhibitors (novobiocin, ART-558, RP6685) in combination with a variety of drugs and investigational agents in selected tumor cell lines
The POL inhibitors (novobiocin, ART-558, and RP6685) were evaluated both individually and in combination with standard of care and investigational anticancer small molecules within a complex spheroid model of solid tumors. . Complex spheroids include a stromal component modeled by human endothelial cells (HUVEC) and fibroblasts modeled by human mesenchymal stem cells (MSCs). The concentration ranges selected for each drug and investigational agent were based upon clinically achievable concentrations if the clinical Cmax of the agent was known.
Compounds. The drugs and investigational agents: novobiocin (NSC847541), ART-558 (NSC835418), RP-6685 (NSC848927), peposertib (NSC802822), ceralasertib (NSC780249), elimusertib (NSC800525), camonsertib (NSC841442), AZD-1390 (NSC803789), olaparib (NSC753686), talazoparib (NSC767125), rucaparib (NSC756644), sotorasib (NSC818433), MRTX-1133 (NSC836407), SN-38 (NSC673596), topotecan (NSC609699), epotoside (NSC141540), doxorubicin (NSC123127), gemcitabine (NSC613327), 5-fluorouracil (NSC19893), paclitaxel (NSC125973), vemurafenib (NSC761431), MSA-2 (NSC828583), SN-011 (NSC837082), adavosertib (NSC754352), prexasertib (NSC758257), carboplatin (NSC241240) and oxaliplatin (NSC266046), were obtained from the National Cancer Institute (NCI) Developmental Therapeutics Program Chemical Repository (21). The FDA-approved anticancer drug set is available from the Developmental Therapeutics Program at https://dtp.cancer.gov/organization/dscb/obtaining/. […] The stock solutions were prepared in dimethyl sulfoxide (DMSO, Sigma-Aldrich, St. Louis, MO, cat. D2650), except for the platinum compounds which were prepared in saline (Quality Biological, Gaithersburg, MD, cat. 114-055-101), at 800-fold the tested concentration and stored at -70 degrees C prior to their use. All drugs and investigational agents were tested over a range starting from a high concentration at or near the clinical Cmax and decreasing in half-log increments. If the clinical Cmax for an agent had not been determined, the highest concentration tested was 10 microM, except for SN-38, which was tested at a high concentration of 1 microM.
Cell Culture. All cells were maintained in an incubator at 37 degrees C and 5% CO2 with 95% humidity. The PDC lines were cultured according to standard operating procedures established by the NCI PDMR (https://pdmr.cancer.gov). Table 3 of the manuscript, lists the cell lines along with the number of the three cell types plated to form the mct-spheroids and media for tumor cell growth. After thawing, all PDC lines, except 997537-175-T-J1-PDC and 415267-285-R-J2-PDC, were cultured in Matrigel-coated flasks prepared with a working solution of 1X Ham's F-12 nutrient mix, without supplementation (Thermo Fisher Scientific, cat. 11765054), 100 U/mL penicillin-streptomycin (Thermo Fisher Scientific, cat. 15140122), and 2.5% Matrigel (Corning Inc., Corning, NY, cat. 354248) for the first three passages. The two PDC lines 997537-175-T-J1-PDC and 415267-285-R-J2-PDC were cultured on uncoated flasks. The 857933-349-R-J2-PDC line was cultured in 6C/Colon 1B media containing advanced DMEM/F-12 (Thermo Fisher Scientific, cat. 12634028), 10 mM HEPES (Thermo Fisher Scientific, cat. 15630080), 1X GlutaMAX supplement (Thermo Fisher Scientific, cat. 35050061), 0.1 mg/mL primocin (InvivoGen, San Diego, CA, cat. ant-pm-2), 10% defined fetal bovine serum, heat inactivated (HyClone Laboratories Inc., Logan, UT, cat. SH30070.03HI), 50% L-WRN conditioned media (ATCC, cat. CRL-3276), 1.25 mM N-Acetyl-L-cysteine (Sigma-Aldrich, cat. A9165), 10 mM nicotinamide (Sigma-Aldrich, cat. N0636), 1X B-27 supplement (Thermo Fisher Scientific, cat. 17504044), 1X N-2 supplement (Thermo Fisher Scientific, cat. […]

[1] = second compound 0.0316 µM, first compound 0.0316 µM
[2] = second compound 0.0316 µM, first compound 0.1 µM
[3] = second compound 0.0316 µM, first compound 0.316 µM
[4] = second compound 0.0316 µM, first compound 1 µM
[5] = second compound 0.0316 µM, first compound 3.16 µM
[6] = second compound 0.0316 µM, first compound 10 µM
[7] = second compound 0.1 µM, first compound 0.0316 µM
[8] = second compound 0.1 µM, first compound 0.1 µM
[9] = second compound 0.1 µM, first compound 0.316 µM
[10] = second compound 0.1 µM, first compound 1 µM
[11] = second compound 0.1 µM, first compound 3.16 µM
[12] = second compound 0.1 µM, first compound 10 µM
[13] = second compound 0.316 µM, first compound 0.0316 µM
[14] = second compound 0.316 µM, first compound 0.1 µM
[15] = second compound 0.316 µM, first compound 0.316 µM
[16] = second compound 0.316 µM, first compound 1 µM
[17] = second compound 0.316 µM, first compound 3.16 µM
[18] = second compound 0.316 µM, first compound 10 µM
[19] = second compound 1 µM, first compound 0.0316 µM
[20] = second compound 1 µM, first compound 0.1 µM
[21] = second compound 1 µM, first compound 0.316 µM
[22] = second compound 1 µM, first compound 1 µM
[23] = second compound 1 µM, first compound 3.16 µM
[24] = second compound 1 µM, first compound 10 µM
[25] = second compound 3.16 µM, first compound 0.0316 µM
[26] = second compound 3.16 µM, first compound 0.1 µM
[27] = second compound 3.16 µM, first compound 0.316 µM
[28] = second compound 3.16 µM, first compound 1 µM
[29] = second compound 3.16 µM, first compound 3.16 µM
[30] = second compound 3.16 µM, first compound 10 µM
[31] = second compound 10 µM, first compound 0.0316 µM
[32] = second compound 10 µM, first compound 0.1 µM
[33] = second compound 10 µM, first compound 0.316 µM
[34] = second compound 10 µM, first compound 1 µM
[35] = second compound 10 µM, first compound 3.16 µM
[36] = second compound 10 µM, first compound 10 µM
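Further: spheroids exposed to compounds for one week before readout.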
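Wherever viability, T/C is given: percent viability relative to DMSO vehicle wells taken as 100%.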

Question: What does the source list for `CC(C)n1c(=O)n(C)c2cnc3cc(F)c(-c4ccc(OCCCN5CCCCC5)nc4)cc3c21` + COC1C(OC(N)=O)C(O)C(Oc2ccc3c(O)c(NC(=O)c4ccc(O)c(CC=C(C)C)c4)c(=O)oc3c2C)OC1(C)C?
Answer: IC50 (second compound 0.0316 µM): > 10 µM; IC50 (second compound 0.1 µM): > 10 µM; IC50 (second compound 0.316 µM): > 10 µM; IC50 (second compound 1 µM): > 10 µM; IC50 (second compound 3.16 µM): > 10 µM; IC50 (second compound 10 µM): > 10 µM; viability, T/C [1]: 92.8%; viability, T/C [2]: 94.6%; viability, T/C [3]: 104%; viability, T/C [4]: 109%; viability, T/C [5]: 130%; viability, T/C [6]: 104%; viability, T/C [7]: 97.8%; viability, T/C [8]: 98.6%; viability, T/C [9]: 101%; viability, T/C [10]: 108%; viability, T/C [11]: 112%; viability, T/C [12]: 113%; viability, T/C [13]: 108%; viability, T/C [14]: 98.6%; viability, T/C [15]: 104%; viability, T/C [16]: 99.6%; viability, T/C [17]: 121%; viability, T/C [18]: 99.5%; viability, T/C [19]: 117%; viability, T/C [20]: 117%; viability, T/C [21]: 95.2%; viability, T/C [22]: 106%; viability, T/C [23]: 116%; viability, T/C [24]: 102%; viability, T/C [25]: 112%; viability, T/C [26]: 111%; viability, T/C [27]: 109%; viability, T/C [28]: 105%; viability, T/C [29]: 99.6%; viability, T/C [30]: 93.2%; viability, T/C [31]: 99.9%; viability, T/C [32]: 102%; viability, T/C [33]: 101%; viability, T/C [34]: 102%; viability, T/C [35]: 107%; viability, T/C [36]: 94.5%

Question: What does the source list for `CC1COCCN1c1cc(C2(O)CC3CCC(C2)O3)c2cnn(-c3ccn[nH]3)c2n1` (centres undefined) + COC1C(OC(N)=O)C(O)C(Oc2ccc3c(O)c(NC(=O)c4ccc(O)c(CC=C(C)C)c4)c(=O)oc3c2C)OC1(C)C?
Answer: IC50 (second compound 0.0316 µM): 1.99 µM; IC50 (second compound 0.1 µM): 2.05 µM; IC50 (second compound 0.316 µM): 1.83 µM; IC50 (second compound 1 µM): 2.04 µM; IC50 (second compound 3.16 µM): 1.29 µM; IC50 (second compound 10 µM): 0.96 µM; viability, T/C [1]: 109%; viability, T/C [2]: 91.5%; viability, T/C [3]: 71%; viability, T/C [4]: 64.1%; viability, T/C [5]: 39.5%; viability, T/C [6]: 35.6%; viability, T/C [7]: 102%; viability, T/C [8]: 91.4%; viability, T/C [9]: 72%; viability, T/C [10]: 57.6%; viability, T/C [11]: 46.7%; viability, T/C [12]: 36.5%; viability, T/C [13]: 106%; viability, T/C [14]: 90.2%; viability, T/C [15]: 69.4%; viability, T/C [16]: 60.1%; viability, T/C [17]: 42.7%; viability, T/C [18]: 30.5%; viability, T/C [19]: 105%; viability, T/C [20]: 90.6%; viability, T/C [21]: 74.3%; viability, T/C [22]: 57.1%; viability, T/C [23]: 47.8%; viability, T/C [24]: 28%; viability, T/C [25]: 99.4%; viability, T/C [26]: 86.8%; viability, T/C [27]: 64.5%; viability, T/C [28]: 50.3%; viability, T/C [29]: 46.2%; viability, T/C [30]: 21.6%; viability, T/C [31]: 100%; viability, T/C [32]: 79.3%; viability, T/C [33]: 57.4%; viability, T/C [34]: 53.2%; viability, T/C [35]: 40.5%; viability, T/C [36]: 25.2%
